Measurements taken from ChEMBL document CHEMBL3885861, “Open TG-GATES”.

Organism: Rattus norvegicus
Test: Open TG-GATES - Regimen: Daily Repeat
Type: toxicity, organism-based, Sprague-Dawley
Set-up: regimen Daily Repeat, gender Male, age 6 weeks
Conditions: in vivo, po, 0 mg/kg, route gavage, dose level Control; for APTT / Bas / Eos / Fbg / Hb / Ht / Lym / MCH / MCHC / MCV / Mono / Neu / PT / Plat / RBC / Ret / WBC: tissue Blood; for KIDNEY_L / KIDNEY_R / KIDNEY_TOTAL: tissue Kidney; for LIVER: tissue Liver; for A/G / ALP / ALT / AST / BUN / CRE / Ca / Cl / DBIL / GLC / IP / K / LDH / Na / PL / RALB / TBIL / TC / TG / TP / gamma-GTP: tissue Plasma

## Cn1c(=O)c2[nH]cnc2n(C)c1=O.O [THEOPHYLLINE]
72 h, time 3 day
  TERMINAL_BW: 247 g
  APTT: 23.1 s
  Bas: 0%
  Eos: 0.8%
  Fbg: 314.4 mg/dL
  Hb: 13.2 g/dL
  Ht: 39.5%
  Lym: 79.4%
  MCH: 21.2 pg
  MCHC: 33.5%
  MCV: 63.2 fL
  Mono: 3.2%
  Neu: 15.2%
  PT: 15 s
  Plat: 114.7 x10_4/uL
  RBC: 625.4 x10_4/ul
  Ret: 7.3%
  WBC: 109 x10_2/uL
  KIDNEY_L: 1.1 g
  KIDNEY_R: 1.1 g
  KIDNEY_TOTAL: 2.2 g
  LIVER: 12.2 g
  A/G: 1.2
  ALP: 1800.8 IU/L
  ALT: 48.4 IU/L
  AST: 71.4 IU/L
  BUN: 17.6 mg/dL
  CRE: 0.2 mg/dL
  Ca: 10.7 mg/dL
  Cl: 105.8 meq/L
  DBIL: 0 mg/dL
  GLC: 203.8 mg/dL
  IP: 8.5 mg/dL
  K: 4.3 meq/L
  LDH: 183.6 IU/L
  Na: 141 meq/L
  PL: 156.6 mg/dL
  RALB: 3 g/dL
  TBIL: 0 mg/dL
  TC: 85 mg/dL
  TG: 96.2 mg/dL
  TP: 5.5 g/dL
  gamma-GTP: 1.6 IU/L
[…], time 7 day
  TERMINAL_BW: 278.6 g
  APTT: 21.8 s
  Bas: 0%
  Eos: 1%
  Fbg: 305.4 mg/dL
  Hb: 13.9 g/dL
  Ht: 40.5%
  Lym: 77.8%
  MCH: 20.9 pg
  MCHC: 34.2%
  MCV: 61.2 fL
  Mono: 2.8%
  Neu: 17.4%
  PT: 15.8 s
  Plat: 112 x10_4/uL
  RBC: 662 x10_4/ul
  Ret: 6%
  WBC: 113.8 x10_2/uL
  KIDNEY_L: 1.2 g
  KIDNEY_R: 1.3 g
  KIDNEY_TOTAL: 2.5 g
  LIVER: 12.9 g
  A/G: 1.2
  ALP: 1566.8 IU/L
  ALT: 43.8 IU/L
  AST: 80.4 IU/L
  BUN: 20 mg/dL
  CRE: 0.2 mg/dL
  Ca: 10.3 mg/dL
  Cl: 106.6 meq/L
  DBIL: 0 mg/dL
  GLC: 212.2 mg/dL
  IP: 7.5 mg/dL
  K: 4.6 meq/L
  LDH: 253.2 IU/L
  Na: 141.4 meq/L
  PL: 145.2 mg/dL
  RALB: 3 g/dL
  TBIL: 0 mg/dL
  TC: 69.4 mg/dL
  TG: 106.2 mg/dL
  TP: 5.6 g/dL
  gamma-GTP: 1.8 IU/L
[…], time 14 day
  TERMINAL_BW: 330.3 g
  APTT: 24.2 s
  Bas: 0%
  Eos: 0.8%
  Fbg: 324.6 mg/dL
  Hb: 14.5 g/dL
  Ht: 42.5%
  Lym: 79.2%
  MCH: 21 pg
  MCHC: 34.1%
  MCV: 61.5 fL
  Mono: 3%
  Neu: 15.2%
  PT: 15.6 s
  Plat: 114.6 x10_4/uL
  RBC: 691.8 x10_4/ul
  Ret: 4.4%
  WBC: 138.2 x10_2/uL
  KIDNEY_L: 1.3 g
  KIDNEY_R: 1.3 g
  KIDNEY_TOTAL: 2.7 g
  LIVER: 15.4 g
  A/G: 1.1
  ALP: 1434.6 IU/L
  ALT: 38.2 IU/L
  AST: 68.4 IU/L
  BUN: 18.6 mg/dL
  CRE: 0.2 mg/dL
  Ca: 10.3 mg/dL
  Cl: 107 meq/L
  DBIL: 0 mg/dL
  GLC: 188.2 mg/dL
  IP: 7.3 mg/dL
  K: 4.4 meq/L
  LDH: 184.4 IU/L
  Na: 142 meq/L
  PL: 149.2 mg/dL
  RALB: 3.1 g/dL
  TBIL: 0.004 mg/dL
  TC: 71.4 mg/dL
  TG: 135.4 mg/dL
  TP: 5.9 g/dL
  gamma-GTP: 2.6 IU/L
[…], time 28 day
  TERMINAL_BW: 378.5 g
  APTT: 24.9 s
  Bas: 0%
  Eos: 1%
  Fbg: 303 mg/dL
  Hb: 14.8 g/dL
  Ht: 42.6%
  Lym: 80.2%
  MCH: 18.9 pg
  MCHC: 34.8%
  MCV: 54.6 fL
  Mono: 1.6%
  Neu: 15%
  PT: 16.2 s
  Plat: 98.8 x10_4/uL
  RBC: 783 x10_4/ul
  Ret: 2.7%
  WBC: 113.3 x10_2/uL
  KIDNEY_L: 1.4 g
  KIDNEY_R: 1.4 g
  KIDNEY_TOTAL: 2.8 g
  LIVER: 15.4 g
  A/G: 1
  ALP: 1140.2 IU/L
  ALT: 38.6 IU/L
  AST: 64.8 IU/L
  BUN: 18.2 mg/dL
  CRE: 0.2 mg/dL
  Ca: 10.3 mg/dL
  Cl: 106.4 meq/L
  DBIL: 0 mg/dL
  GLC: 204.6 mg/dL
  IP: 6.5 mg/dL
  K: 4.1 meq/L
  LDH: 132.2 IU/L
  Na: 142.4 meq/L
  PL: 140.6 mg/dL
  RALB: 3.1 g/dL
  TBIL: 0.01 mg/dL
  TC: 65 mg/dL
  TG: 145.6 mg/dL
  TP: 6.1 g/dL
  gamma-GTP: 2.8 IU/L
